Assay results published in US20050181376A1, “Antisense modulation of microsomal triglyceride transfer protein expression” (ISIS Pharmaceuticals, Inc., priority 2001, published 2005).
Strand notation (5' to 3'): a small letter for the sugar, then the base; units joined by * are phosphorothioate-linked, units joined directly phosphodiester-linked; [ ] holds rarer units or linkages, { } end groups; capitals alone tell only the bases. e = 2'-O-(2-methoxyethyl) (MOE); [5mC] = 5-methylcytosine; d = 2'-deoxy (DNA)

Test system: human microsomal triglyceride transfer protein mRNA
Assay: Antisense inhibition of human microsomal triglyceride transfer protein mRNA levels, quantitative real-time PCR; note: test concentration or dose not given here
Details: averages from two experiments

Row | Substance | % INHIB (inhibition of human microsomal triglyceride transfer protein mRNA levels)
1 | 144437 (eG*eT*eA*e[5mC]*eT*dG*dG*dT*dT*dT*d[5mC]*d[5mC]*dA*dG*dG*e[5mC]*e[5mC]*eA*eG*e[5mC]; antisense) [compound 144437] | 32%
2 | 144416 (eA*eG*eG*eT*eG*dG*dT*dG*dA*d[5mC]*dA*dG*dA*dT*dG*eT*eA*eG*e[5mC]*eT; antisense) [compound 144416] | 27%
3 | CGCTGTGCTCTCAGAGAGCA (antisense e[5mC]*eG*e[5mC]*eT*eG*dT*dG*d[5mC]*dT*d[5mC]*dT*d[5mC]*dA*dG*dA*eG*eA*eG*e[5mC]*eA) [ISIS 144442] | at least 30%
4 | 144445 (eG*eA*eT*eT*eT*dG*dA*dG*dA*dG*dA*dG*dG*dT*dA*eT*eA*eA*eG*eT; antisense) [compound 144445] | 18%
5 | 144448 (e[5mC]*e[5mC]*e[5mC]*eG*eT*d[5mC]*dA*dT*dG*d[5mC]*dT*dT*dA*dA*dG*eG*eA*eA*eG*eT) [compound 144448] | 49%
6 | 144428 (eG*e[5mC]*eA*eG*e[5mC]*dT*dG*d[5mC]*dA*dG*d[5mC]*dA*dG*dT*dG*e[5mC]*eG*e[5mC]*eA*e[5mC]; antisense) [compound 144428] | 19%
7 | GCGGTAGCCCACGCTGTCTT (antisense eG*e[5mC]*eG*eG*eT*dA*dG*d[5mC]*d[5mC]*d[5mC]*dA*d[5mC]*dG*d[5mC]*dT*eG*eT*e[5mC]*eT*eT) [ISIS 144412] | at least 30%
8 | 144413 (eG*eA*eT*eT*e[5mC]*d[5mC]*dT*d[5mC]*d[5mC]*dA*dT*dA*dG*dT*dA*eA*eG*eG*e[5mC]*e[5mC]; antisense) [compound 144413] | 91%
9 | 144440 (eA*eA*eT*eA*eT*d[5mC]*dA*d[5mC]*dA*dG*dG*dT*d[5mC]*dA*dG*eT*eT*eT*e[5mC]*eA; antisense) [compound 144440] | 40%
10 | 144425 (e[5mC]*e[5mC]*e[5mC]*eT*eT*d[5mC]*dT*d[5mC]*d[5mC]*dT*dG*d[5mC]*dT*dT*d[5mC]*eT*eG*e[5mC]*eA*eT; antisense) [compound 144425] | 22%
11 | GATTCCTCCATAGTAAGGCC (antisense eG*eA*eT*eT*e[5mC]*d[5mC]*dT*d[5mC]*d[5mC]*dA*dT*dA*dG*dT*dA*eA*eG*eG*e[5mC]*e[5mC]) [ISIS 144413] | at least 30%
12 | CGCTGGAAGTACTATCCGGC (antisense e[5mC]*eG*e[5mC]*eT*eG*dG*dA*dA*dG*dT*dA*d[5mC]*dT*dA*dT*e[5mC]*e[5mC]*eG*eG*e[5mC]) [ISIS 144439] | at least 30%
13 | 144414 (eG*eA*eT*eT*eA*dG*dA*dT*dG*dA*dA*dG*dG*dA*dG*e[5mC]*eG*eT*eA*eG; antisense) [compound 144414] | 0%
14 | 144411 (eA*e[5mC]*eG*eT*eG*dA*dG*d[5mC]*dT*dT*dG*dT*dA*d[5mC]*dA*eG*e[5mC]*e[5mC]*eG*eG; antisense) [compound 144411] | 28%
15 | 144444 (eG*eA*eT*eG*eA*dT*dT*d[5mC]*dA*dA*dA*dA*dT*dG*dA*e[5mC]*eG*e[5mC]*eT*eG; antisense) [compound 144444] | 32%
16 | CCTGGAGGATAATGCTGCTG (antisense e[5mC]*e[5mC]*eT*eG*eG*dA*dG*dG*dA*dT*dA*dA*dT*dG*d[5mC]*eT*eG*e[5mC]*eT*eG) [ISIS 144422] | at least 30%
17 | 144442 (e[5mC]*eG*e[5mC]*eT*eG*dT*dG*d[5mC]*dT*d[5mC]*dT*d[5mC]*dA*dG*dA*eG*eA*eG*e[5mC]*eA; antisense) [compound 144442] | 57%
18 | 144430 (e[5mC]*eT*eA*eT*eG*dT*dA*dG*d[5mC]*d[5mC]*dA*dG*dT*dG*dT*eA*eG*eG*e[5mC]*eA; antisense) [compound 144430] | 0%
19 | 144436 (eG*eA*eG*eG*eA*dG*dT*d[5mC]*d[5mC]*dA*d[5mC]*dT*dG*dT*dG*eA*eT*eG*eT*e[5mC]; antisense) [compound 144436] | 29%
20 | 144412 (eG*e[5mC]*eG*eG*eT*dA*dG*d[5mC]*d[5mC]*d[5mC]*dA*d[5mC]*dG*d[5mC]*dT*eG*eT*e[5mC]*eT*eT; antisense) [compound 144412] | 34%
21 | 144424 (eA*eG*e[5mC]*eA*eG*dA*dT*dA*d[5mC]*dA*dT*d[5mC]*d[5mC]*dT*dG*eG*eT*eG*eT*e[5mC]; antisense) [compound 144424] | 23%

Row | Substance | % INHIB (inhibition of human microsomal triglyceride transfer protein mRNA levels)
22 | 144418 (eA*e[5mC]*eA*eG*eT*dG*dG*d[5mC]*dT*d[5mC]*dT*dG*dG*dA*dA*eG*eA*e[5mC]*e[5mC]*eT; antisense) [compound 144418] | 0%
23 | 144426 (eG*eA*eG*e[5mC]*eA*dG*dT*dG*dG*dT*dA*dG*d[5mC]*d[5mC]*dA*eG*eG*eT*eG*eG; antisense) [compound 144426] | 22%
24 | 144408 (eT*e[5mC]*eA*eA*e[5mC]*dT*dG*d[5mC]*dA*dT*d[5mC]*d[5mC]*dA*dG*dT*eG*e[5mC]*e[5mC]*e[5mC]*eA; antisense) [compound 144408] | 30%
25 | 144443 (eG*eT*eA*eG*e[5mC]*dA*dT*dA*d[5mC]*dT*dG*d[5mC]*dA*dT*dA*eT*eA*e[5mC]*e[5mC]*e[5mC]; antisense) [compound 144443] | 51%
26 | 144427 (eT*eA*eA*eG*eG*dT*d[5mC]*dT*dT*d[5mC]*dT*dT*d[5mC]*dA*d[5mC]*e[5mC]*eT*e[5mC]*eA*eT; antisense) [compound 144427] | 8%
27 | 144410 (e[5mC]*e[5mC]*eA*eG*eT*dT*dG*dT*dG*dT*dG*dA*d[5mC]*d[5mC]*dT*eT*eT*eA*eA*e[5mC]; antisense) [compound 144410] | 38%
28 | ATGTGCCTTCTACCTTAAGG (antisense eA*eT*eG*eT*eG*d[5mC]*d[5mC]*dT*dT*d[5mC]*dT*dA*d[5mC]*d[5mC]*dT*eT*eA*eA*eG*eG) [ISIS 144449] | at least 30%
29 | 144420 (eG*eA*eG*eG*eT*dG*dA*d[5mC]*dA*dG*d[5mC]*dA*dT*d[5mC]*d[5mC]*eA*e[5mC]*e[5mC]*eA*eG; antisense) [compound 144420] | 21%
30 | 144415 (eG*eT*eG*eG*eT*dT*d[5mC]*d[5mC]*dA*dG*dA*dG*d[5mC]*dT*dT*eA*eA*e[5mC]*eT*eG; antisense) [compound 144415] | 0%
31 | GCTTCATCCTTGTCCATCTG (antisense eG*e[5mC]*eT*eT*e[5mC]*dA*dT*d[5mC]*d[5mC]*dT*dT*dG*dT*d[5mC]*d[5mC]*eA*eT*e[5mC]*eT*eG) [ISIS 144438] | at least 30%
32 | CCCGTCATGCTTAAGGAAGT (antisense e[5mC]*e[5mC]*e[5mC]*eG*eT*d[5mC]*dA*dT*dG*d[5mC]*dT*dT*dA*dA*dG*eG*eA*eA*eG*eT) [ISIS 144448] | at least 30%
33 | TCATATTGACCAGCAATCCT (antisense eT*e[5mC]*eA*eT*eA*dT*dT*dG*dA*d[5mC]*d[5mC]*dA*dG*d[5mC]*dA*eA*eT*e[5mC]*e[5mC]*eT) [ISIS 144409] | at least 30%
34 | 144434 (e[5mC]*e[5mC]*e[5mC]*eT*eG*dG*dA*d[5mC]*d[5mC]*dT*d[5mC]*dT*dA*dT*dA*eT*eT*eG*eG*e[5mC]; antisense) [compound 144434] | 0%
35 | 144429 (e[5mC]*eT*eT*eG*eA*d[5mC]*dG*dT*d[5mC]*d[5mC]*dA*dT*dG*dT*dA*eG*eG*eA*eT*eG; antisense) [compound 144429] | 0%
36 | 144423 (eA*eG*eT*eG*eT*d[5mC]*d[5mC]*d[5mC]*dA*dG*dT*dG*dA*dT*dG*eA*eT*e[5mC]*eA*eT; antisense) [compound 144423] | 41%
37 | 144431 (e[5mC]*eG*eA*eG*eT*dA*dG*dA*dG*dA*dA*dT*dG*dT*d[5mC]*eT*eA*eG*eG*e[5mC]; antisense) [compound 144431] | 26%
38 | GAGCTTCATATACATTGATC (antisense eG*eA*eG*e[5mC]*eT*dT*d[5mC]*dA*dT*dA*dT*dA*d[5mC]*dA*dT*eT*eG*eA*eT*e[5mC]) [ISIS 144447] | at least 30%
39 | 144432 (eT*eA*e[5mC]*e[5mC]*eG*dT*dG*dA*dA*dG*dA*d[5mC]*d[5mC]*dA*dG*e[5mC]*e[5mC]*eT*eT*e[5mC]; antisense) [compound 144432] | 0%
40 | 144421 (eA*eT*eG*eG*e[5mC]*dT*dT*d[5mC]*dT*dA*dA*dT*dG*dA*dG*eT*e[5mC]*eT*eG*eA; antisense) [compound 144421] | 13%
41 | 144435 (eG*eA*eT*eA*e[5mC]*d[5mC]*dA*d[5mC]*dA*dA*dG*d[5mC]*dT*dA*dA*eA*e[5mC]*eT*e[5mC]*e[5mC]; antisense) [compound 144435] | 0%
42 | AATATCACAGGTCAGTTTCA (antisense eA*eA*eT*eA*eT*d[5mC]*dA*d[5mC]*dA*dG*dG*dT*d[5mC]*dA*dG*eT*eT*eT*e[5mC]*eA) [ISIS 144440] | at least 30%
